Laboratory results from US12240844B2 (Voronoi, Inc., priority 2019, dated 2025).

Columns and labels:
TNF-α = TNF-α secretion inhibition in LPS-treated THP-1 cells (ELISA); assay type: cell-based; conditions: Homo sapiens, compound 0.5 μM, LPS 500 ng/ml, 24 hours, read-out: THP-1/TNF-a (% inhib)
Procedure, shortened: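 Human monocytic THP-1 cells were pre-cultured 16 h at 37° C., then treated with compound at 0.5 μM final, followed by LPS at 500 ng/ml final. After 24 h, IL-6 and TNF-α in culture supernatant were quantified by ELISA with absorbance read at 450 nm.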

THP-1 = THP-1 GI50 (Table 4, method not given); assay type: cell-based; conditions: Homo sapiens; THP-1 cells
[1] = biological target: T1, LRRK2, LRRK2 (G2019S), DYRK1, CLK1 and TTK kinases (Homo sapiens, UniProt Q13627); assay: Enzyme IC50 by Kinase HotSpot service (Reaction Biology Corporation), values marked with *; assay type: biochemical; conditions: DYRK1, ATP 10 uM
T1 construct: other: DYRK1; Kinase HotSpot service (Reaction Biology), ATP 10 uM
Procedure, shortened: (§1)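 Radiometric-service kinase assays (Reaction Biology HotSpot protocol) run at 10 uM ATP under uniform conditions. Compounds tested as 3-fold dilution series from a top concentration of […] to give IC50.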

SHP-77 = SHP-77 cancer cell proliferation inhibition (Cell Titer-Glo); assay type: cell-based; conditions: Homo sapiens, SHP77, SHP-77 small cell lung cancer cell line, 72 hours
Procedure, shortened: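 GI50 comes from CellTiter-Glo luminescence, read 10 min after reagent addition at RT, following 72 h compound treatment. Eleven concentrations were used (⅓ steps, highest 10 μM final) on 2000 cells/well. MDA-MB-231 and MDA-MB-468 were grown in DMEM, SHP-77 in RPMI.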

[2] = biological target: T2, LRRK2, LRRK2 (G2019S), DYRK1, CLK1 and TTK kinases (Homo sapiens, UniProt P49759); assay: Enzyme IC50 by Kinase HotSpot service (Reaction Biology Corporation), values marked with *; assay type: biochemical; conditions: CLK1, ATP 10 uM
T2 construct: CLK1 IC50 (marked with *); other: CLK1; Kinase HotSpot service (Reaction Biology), ATP 10 uM
T2 sequence (P49759 whole entry, stated change not applied): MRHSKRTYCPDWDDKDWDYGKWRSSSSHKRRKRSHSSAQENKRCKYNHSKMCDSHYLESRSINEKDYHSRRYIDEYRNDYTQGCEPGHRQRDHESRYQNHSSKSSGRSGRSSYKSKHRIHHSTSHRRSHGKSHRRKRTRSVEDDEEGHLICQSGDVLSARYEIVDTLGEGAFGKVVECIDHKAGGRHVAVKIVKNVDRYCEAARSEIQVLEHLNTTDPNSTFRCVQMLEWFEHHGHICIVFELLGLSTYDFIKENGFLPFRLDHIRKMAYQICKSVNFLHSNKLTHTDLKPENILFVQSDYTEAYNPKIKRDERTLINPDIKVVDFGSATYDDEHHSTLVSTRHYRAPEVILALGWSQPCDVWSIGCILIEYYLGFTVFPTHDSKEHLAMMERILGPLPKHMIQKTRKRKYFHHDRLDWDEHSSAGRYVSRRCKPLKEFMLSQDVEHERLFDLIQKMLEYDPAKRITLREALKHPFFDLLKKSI
Procedure, shortened: as §1

[3] = biological target: T3, LRRK2, LRRK2 (G2019S), DYRK1, CLK1 and TTK kinases (Homo sapiens, UniProt Q5S007); assay: as above; assay type: biochemical; conditions: LRRK2, ATP 10 uM
T3 construct: LRRK2 IC50 (marked with *); other: LRRK2; Kinase HotSpot service (Reaction Biology), ATP 10 uM
T3 sequence (Q5S007 whole entry G2019S): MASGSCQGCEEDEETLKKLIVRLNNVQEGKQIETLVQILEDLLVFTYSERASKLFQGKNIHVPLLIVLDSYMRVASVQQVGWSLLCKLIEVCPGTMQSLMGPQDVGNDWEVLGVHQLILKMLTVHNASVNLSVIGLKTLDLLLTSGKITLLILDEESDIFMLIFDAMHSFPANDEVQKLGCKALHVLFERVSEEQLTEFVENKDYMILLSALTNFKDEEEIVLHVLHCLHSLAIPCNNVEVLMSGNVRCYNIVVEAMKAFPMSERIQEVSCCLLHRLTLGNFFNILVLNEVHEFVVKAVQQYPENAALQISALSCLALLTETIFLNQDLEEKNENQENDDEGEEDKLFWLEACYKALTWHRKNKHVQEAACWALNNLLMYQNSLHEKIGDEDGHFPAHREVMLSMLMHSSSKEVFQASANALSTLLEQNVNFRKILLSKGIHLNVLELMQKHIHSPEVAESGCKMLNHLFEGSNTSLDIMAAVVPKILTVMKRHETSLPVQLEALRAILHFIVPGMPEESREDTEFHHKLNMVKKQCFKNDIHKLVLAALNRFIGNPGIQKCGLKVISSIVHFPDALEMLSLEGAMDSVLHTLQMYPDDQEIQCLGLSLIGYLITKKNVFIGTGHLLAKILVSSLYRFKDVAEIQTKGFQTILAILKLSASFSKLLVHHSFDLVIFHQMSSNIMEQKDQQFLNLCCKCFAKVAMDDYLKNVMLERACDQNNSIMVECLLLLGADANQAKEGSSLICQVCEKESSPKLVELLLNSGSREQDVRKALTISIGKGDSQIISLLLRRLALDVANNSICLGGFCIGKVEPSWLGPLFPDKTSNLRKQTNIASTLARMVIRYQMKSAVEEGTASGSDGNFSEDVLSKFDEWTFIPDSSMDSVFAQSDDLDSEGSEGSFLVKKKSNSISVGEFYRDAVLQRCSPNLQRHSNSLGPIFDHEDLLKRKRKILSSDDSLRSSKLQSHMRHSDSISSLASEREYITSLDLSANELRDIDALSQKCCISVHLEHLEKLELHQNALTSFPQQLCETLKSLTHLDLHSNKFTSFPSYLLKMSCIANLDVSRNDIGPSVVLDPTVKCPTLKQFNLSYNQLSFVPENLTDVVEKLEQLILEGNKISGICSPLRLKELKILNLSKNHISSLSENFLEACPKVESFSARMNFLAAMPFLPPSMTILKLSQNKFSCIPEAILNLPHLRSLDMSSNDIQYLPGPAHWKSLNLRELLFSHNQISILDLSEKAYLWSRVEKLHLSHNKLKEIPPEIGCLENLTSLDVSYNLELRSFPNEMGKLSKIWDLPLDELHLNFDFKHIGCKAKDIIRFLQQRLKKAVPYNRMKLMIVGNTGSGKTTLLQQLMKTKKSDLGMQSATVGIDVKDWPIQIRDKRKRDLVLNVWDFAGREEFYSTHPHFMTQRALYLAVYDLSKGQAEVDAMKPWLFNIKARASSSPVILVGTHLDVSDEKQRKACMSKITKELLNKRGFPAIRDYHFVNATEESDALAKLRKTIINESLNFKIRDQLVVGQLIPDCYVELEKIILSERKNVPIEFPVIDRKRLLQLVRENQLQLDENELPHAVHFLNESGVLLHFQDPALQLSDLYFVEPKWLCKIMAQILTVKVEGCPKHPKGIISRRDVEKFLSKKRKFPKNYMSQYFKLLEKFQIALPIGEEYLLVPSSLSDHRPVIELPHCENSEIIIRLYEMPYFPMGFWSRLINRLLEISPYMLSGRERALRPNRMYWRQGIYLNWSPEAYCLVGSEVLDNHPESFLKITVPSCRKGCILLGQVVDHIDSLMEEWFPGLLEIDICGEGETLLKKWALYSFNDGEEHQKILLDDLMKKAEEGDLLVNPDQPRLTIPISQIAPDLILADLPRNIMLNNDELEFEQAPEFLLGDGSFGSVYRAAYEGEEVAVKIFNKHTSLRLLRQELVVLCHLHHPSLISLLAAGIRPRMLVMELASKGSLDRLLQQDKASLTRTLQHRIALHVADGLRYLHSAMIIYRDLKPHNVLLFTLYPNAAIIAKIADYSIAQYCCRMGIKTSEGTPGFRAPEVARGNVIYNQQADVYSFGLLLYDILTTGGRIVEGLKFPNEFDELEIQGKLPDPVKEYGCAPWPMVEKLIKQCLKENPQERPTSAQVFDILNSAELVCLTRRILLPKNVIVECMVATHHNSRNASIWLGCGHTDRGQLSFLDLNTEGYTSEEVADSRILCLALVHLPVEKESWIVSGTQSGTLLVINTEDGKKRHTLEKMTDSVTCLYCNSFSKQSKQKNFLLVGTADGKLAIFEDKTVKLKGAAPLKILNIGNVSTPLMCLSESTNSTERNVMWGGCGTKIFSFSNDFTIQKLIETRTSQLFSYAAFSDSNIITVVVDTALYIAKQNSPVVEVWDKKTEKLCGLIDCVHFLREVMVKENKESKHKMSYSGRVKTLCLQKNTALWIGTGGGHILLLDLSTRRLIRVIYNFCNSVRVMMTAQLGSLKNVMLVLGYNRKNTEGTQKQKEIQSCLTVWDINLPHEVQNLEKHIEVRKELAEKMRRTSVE
Procedure, shortened: as §1

| Compound | inhibition at 0.5 µM (TNF-α) [%] | IC50 [1] [nM] | GI50 (SHP-77) [nM] | also measured |
| --- | --- | --- | --- | --- |
| CCNc1cc(Nc2ccc(C(=O)N3CCC(N4CCOCC4)CC3)c3c2OCO3)nc2[nH]cc(C(F)(F)F)c12 [Example 37, (7-((4-(ethylamino)-3-(trifluoromethyl)-1H-pyrrolo[2,3-b]pyridin-6-yl)amino)benzo[d][1,3]dioxol-4-yl)(4-morpholinopiperidin-1-yl)methanone] | 100 | – | – | GI50 (THP-1): 14400 nM |
| N#Cc1c[nH]c2nc(Nc3ccc(C(=O)N4CCC(N5CCOCC5)CC4)c4c3OCCO4)cc(C3CC3)c12 [Example 226, 4-cyclopropyl-6-((8-(4-morpholinopiperidine-1-carbonyl)-2,3-dihydrobenzo[b] [1,4]dioxin-5-yl)amino)-1H-pyrrolo[2,3-b]pyridine-3-carbonitrile] | – | < 100 | – | – |
| COCCNc1cc(Nc2ccc(S(=O)(=O)N3CCC(N4CCOCC4)CC3)c3c2OCCO3)nc2[nH]cc(C(F)(F)F)c12 [Example 97, N^4-(2-methoxyethyl)-N^6-(8-((4-morpholonopiperidin-1-yl)sulfonyl)-2,3-dihydrobenzo[b] [1,4]dioxin-5-yl)-3-(trifluoromethyl)-1H-pyrrolo[2,3-b]pyridine-4,6-diamine] | 5.5 | – | 301 to 1000 | – |
| COc1cc(S(=O)(=O)N2CCC(N3CCOCC3)CC2)ccc1Nc1cc(C2CC2)c2c(C#N)c[nH]c2n1 [Example 228, 4-cyclopropyl-6-((2-methoxy-4-((4-morpholinopiperidin-1-yl)sulfonyl)phenyl)amino)-1H-pyrrolo[2,3-b]pyridine-3-carbonitrile] | – | < 100 | 51 to 100 | – |
| O=C(c1ccc(Nc2cc(C3CC3)c3c(C(F)(F)F)c[nH]c3n2)c2c1CCO2)N1CC[C@@H](N2CCOCC2)C1 [Example 238, (R)-(7-((4-cyclopropyl-3-(trifluoromethyl)-1H-pyrrolo[2,3-b]pyridin-6-yl)amino)-2,3-dihydrobenzofuran-4-yl)(3-morpholinopyrrolidin-1-yl)methanone] | – | < 100 | – | IC50 [2]: < 100 nM; IC50 [3]: 101 to 300 nM |
| CCNc1cc(Nc2ccc(C(=O)N3C[C@@H]4C[C@H]3CO4)c3c2OCCO3)nc2[nH]cc(C(F)(F)F)c12 [Example 44, ((1S,4S)-2-oxa-5-azabicyclo[2.2.1]heptan-5-yl)(8-((4-(ethylamino)-3-(trifluoromethyl)-1H-pyrrolo[2,3-b]pyridin-6-yl)amino)-2,3-dihydrobenzo[b] [1,4]dioxin-5-yl)methanone] | 100 | – | 301 to 1000 | GI50 (THP-1): 146000 nM |
| CNc1cc(Nc2ccc(S(=O)(=O)N3CCC(N4CCOCC4)CC3)c3c2OCCO3)nc2[nH]cc(C(F)(F)F)c12 [Example 233, N^4-methyl-N^6-(8-((4-morpholinopiperidin-1-yl)sulfonyl)-2,3-dihydrobenzo [b] [1,4]dioxin-5-yl)-3-(trifluoromethyl)-1H-pyrrolo[2,3-b]pyridine-4,6-diamine] | 12.5 | – | 301 to 1000 | – |
| COCCNc1cc(Nc2ccc(P3(=O)CCN(C4CC4)CC3)cc2OC)nc2[nH]cc(C(F)(F)F)c12 [Example 207, 1-cyclopropyl-4-(3-methoxy-4-((4-((2-methoxyethyl)amino)-3-(trifluoromethyl)-1H-pyrrolo[2,3-b]pyridin-6-yl)amino)phenyl)-1,4-azaphosphinane 4-oxide] | 39.8 | – | 301 to 1000 | GI50 (THP-1): 9390 nM |
| O=C(c1ccc(Nc2cc(C3CC3)c3c(C(F)(F)F)c[nH]c3n2)c2c1CCO2)N1CCOCC1 [Example 91, (7-((4-cyclopropyl-3-(trifluoromethyl)-1H-pyrrolo[2,3-b]pyridin-6-yl)amino)-2,3-dihydrobenzofuran-4-yl)(morpholino) methanone] | 9.6 | < 100 | – | IC50 [2]: < 100 nM |
| O=C(c1ccc(Nc2cc(C3CC3)c3c(C(F)(F)F)c[nH]c3n2)c2c1CCO2)N1CCC(N2CCOCC2)CC1 [Example 93, (7-((4-cyclopropyl-3-(trifluoromethyl)-1H-pyrrolo[2,3-b]pyridin-6-yl)amino)-2,3-dihydrobenzofuran-4-yl)(4-morpholinopiperidin-1-yl)mthanone] | – | < 100 | – | – |
| COc1cc(S(=O)(=O)N2CCOCC2)ccc1Nc1cc(C2CC2)c2c(C(F)(F)F)c[nH]c2n1 [Example 222, 4-cyclopropyl-N-(2-methoxy-4-(morpholinosulfonyl)phenyl)-3-(trifluoromethyl)-1H-pyrrolo[2,3-b]pyridin-6-amine] | – | 101 to 300 | 301 to 1000 | – |
| COc1cc(S(=O)(=O)N2CCC(N3CCOCC3)CC2)ccc1Nc1cc(NCCS(C)(=O)=O)c2c(C(F)(F)F)c[nH]c2n1 [Example 194, N^6-(2-methoxy-4-((4-morpholinopiperidin-1-yl)sulfonyl)phenyl)-N^4-(2-(methylsulfonyl)ethyl)-3-(trifluoromethyl)-1H-pyrrolo[2,3-b]pyridine-4,6-diamine] | 37.6 | – | 301 to 1000 | – |
| N#Cc1c[nH]c2nc(Nc3ccc(C(=O)N4CCOCC4)c4c3OCCO4)cc(C3CC3)c12 [Example 225, 4-cyclopropyl-6-((8-(morpholine-4-carbonyl)-2,3-dihydrobenzo[b] [1,4]dioxin-5-yl)amino)-1H-pyrrolo[2,3-b]pyridine-3-carbonitrile] | – | 101 to 300 | – | – |
| O=C(c1ccc(Nc2cc(C3CC3)c3c(C(F)(F)F)c[nH]c3n2)c2c1CCO2)N1CC[C@H](N2CCOCC2)C1 [Example 237, (S)-(7-((4-cyclopropyl-3-(trifluoromethyl)-1H-pyrrolo[2,3-b]pyridin-6-yl)amino)-2,3-dihydrobenzofuran-4-yl)(3-morpholinopyrrolidin-1-yl)methanone] | – | < 100 | – | IC50 [2]: < 100 nM; IC50 [3]: 101 to 300 nM |
| CNc1cc(Nc2ccc(S(=O)(=O)N3CCC(N4C[C@H]5C[C@@H]4CO5)CC3)cc2OC)nc2[nH]cc(C(F)(F)F)c12 [Example 243, N^6-(4-((4-((1R,4R)-2-oxa-5-azabicyclo[2.2.1]heptan-5-yl)piperidin-1-yl)sulfonyl)-2-methoxyphenyl)-N^4-methyl-3-(trifluoromethyl)-1H-pyrrolo[2,3-b]pyridine-4,6-diamine] | 2.1 | – | 51 to 100 | – |
| CCNc1cc(Nc2ccc(C(=O)N3CCC(N4C[C@H]5C[C@@H]4CO5)CC3)c3c2OCC3)nc2[nH]cc(C(F)(F)F)c12 [Example 244, (4-((1R,4R)-2-oxa-5-azabicyclo[2.2.1]heptan-5-yl)piperidin-1-yl)(7-((4-(ethylamino)-3-(trifluoromethyl)-1H-pyrrolo[2,3-b]pyridin-6-yl)amino)-2,3-dihydrobenzofuran-4-yl)methanone] | 12.7 | – | – | – |
| CNc1cc(Nc2ccc(S(=O)(=O)N3CCC(N4CCOCC4)CC3)cc2OC)nc2[nH]cc(C(F)(F)F)c12 [Example 184, N^6-(2-methoxy-4-((4-morpholinopiperidin-1-yl)sulfonyl)phenyl)-N^4-methyl-3-(trifluoromethyl)-1H-pyrrolo[2,3-b]pyridine-4,6-diamine] | – | < 100 | 101 to 300 | IC50 [2]: < 100 nM; IC50 [3]: < 100 nM |
| CCNc1cc(Nc2ccc(P3(=O)CCN(C(C)=O)CC3)cc2OC)nc2[nH]cc(C(F)(F)F)c12 [Example 42, 1-(4-(4-((4-(ethylamino)-3-(trifluoromethyl)-1H-pyrrolo[2,3-b]pyridin-6-yl)amino)-3-methoxyphenyl)-4-oxido-1,4-azaphosphinan-1-yl)ethan-1-one] | 35.7 | – | 301 to 1000 | GI50 (THP-1): 16300 nM |
| O=C(c1ccc(Nc2cc(C3CC3)c3c(C(F)(F)F)c[nH]c3n2)c2c1OCCO2)N1CCC(N2CCOCC2)CC1 [Example 221, (8-((4-cyclopropyl-3-(trifluoromethyl)-1H-pyrrolo[2,3-b]pyridin-6-yl)amino)-2,3-dihydrobenzo [b] [1,4]dioxin-5-yl)(4-morpholinopiperidin-1-yl)methanone] | – | < 100 | – | – |
| O=C(c1ccc(Nc2cc(C3CC3)c3c(C(F)(F)F)c[nH]c3n2)c2c1OCO2)N1CCC(N2CCOCC2)CC1 [Example 49, (7-((4-cyclopropyl-3-(trifluoromethyl)-1H-pyrrolo[2,3-b]pyridin-6-yl)amino)benzo[d][1,3]dioxol-4-yl)(4-morpholinopiperidin-1-yl)methanone] | – | 101 to 300 | – | – |
| COc1cc(P2(=O)CCN(C(C)=O)CC2)ccc1Nc1cc(C2CC2)c2c(C(F)(F)F)c[nH]c2n1 [Example 48, 1-(4-(4-((4-cyclopropyl-3-(trifluoromethyl)-1H-pyrrolo[2,3-b]pyridin-6-yl)amino)-3-methoxyphenyl)-4-oxido-1,4-azaphosphinan-1-yl)ethan-1-one] | – | < 100 | – | – |
